Results taken from the supplement of paper PMC11061612.

What was measured:
Assay in all cases: Bliss excess, mean over the matrix (fraction); higher = more synergy
[1] = test system: MSTO-211H (Mesothelioma)
Procedure, shortened: (§1)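 Cell lines in DMEM/F12 or RPMI with 10% FBS were plated in 1536-well plates, held 24 hours at 37°C, 5% CO2, then given two-drug dose matrices for 72 hours (DMSO typically 0.2%). Viability was read by CellTiter-Glo 2.0 luminescence and scaled as inhibition from 0 (vehicle wells) to 1 (blank wells). Combination Emax is the second-highest inhibition in the matrix; Bliss excess is observed combination effect minus expected EA + EB − EA·EB, EA and EB being single-agent effects.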

[2] = test system: MEG-01 (Chronic Myelogenous Leukemia)
Procedure, shortened: as §1

[3] = test system: SNG-M (Endometrial Carcinoma)
Procedure, shortened: as §1

[4] = test system: HCC-827 (Lung Adenocarcinoma)
Procedure, shortened: as §1

[5] = test system: BICR78 (Oral Cavity Carcinoma)
Procedure, shortened: as §1

[6] = test system: SK-UT-1 (Other Solid Carcinomas)
Procedure, shortened: as §1

[7] = test system: JHH-6 (Hepatocellular Carcinoma)
Procedure, shortened: as §1

[8] = test system: TYK-nu (Ovarian Carcinoma)
Procedure, shortened: as §1

[9] = test system: HOP-92 (Non-Small Cell Lung Carcinoma)
Procedure, shortened: as §1

[10] = test system: 647-V (Bladder Carcinoma)
Procedure, shortened: as §1

[11] = test system: CS1 (Chondrosarcoma)
Procedure, shortened: as §1

[12] = test system: A172 (Glioblastoma)
Procedure, shortened: as §1

[13] = test system: SNU-61 (Colorectal Carcinoma)
Procedure, shortened: as §1

[14] = test system: EKVX (Non-Small Cell Lung Carcinoma)
Procedure, shortened: as §1

[15] = test system: SLVL (B-Cell Non-Hodgkin's Lymphoma)
Procedure, shortened: as §1

[16] = test system: P31-FUJ (Acute Myeloid Leukemia)
Procedure, shortened: as §1

[17] = test system: HCT-116 (Colorectal Carcinoma)
Procedure, shortened: as §1

[18] = test system: EFM-192A (Breast Carcinoma)
Procedure, shortened: as §1

[19] = test system: WSU-DLCL2 (B-Cell Non-Hodgkin's Lymphoma)
Procedure, shortened: as §1

[20] = test system: H4 (Low Grade Glioma)
Procedure, shortened: as §1

SMILES	Bliss excess [1]	Bliss excess [2]	Bliss excess [3]	Bliss excess [4]	Bliss excess [5]	Bliss excess [6]	Bliss excess [7]	Bliss excess [8]	Bliss excess [9]	Bliss excess [10]	Bliss excess [11]	Bliss excess [12]	Bliss excess [13]	Bliss excess [14]	Bliss excess [15]	Bliss excess [16]	Bliss excess [17]	Bliss excess [18]	Bliss excess [19]	Bliss excess [20]
COc1cccc(OCCCN)c1-c1cc(Nc2cnc(C#N)cn2)n[nH]1 [Prexasertib] + C[C@@H]1COCCN1C2=NC(=NC(=C2)C3(CC3)[S@](=N)(=O)C)C4=C5C=CNC5=NC=C4 [AZD6738] (first compound max 1 µM, 7x7, partner max 10 µM)	-0.0197	-0.0542	0.0329	-0.0234	-0.0057	-0.0259	0.0207	-0.0604	-0.0039	-0.0106	-0.0111	0.0013	-0.0693	-0.0018	-0.0455	0.0092	0.103	0.0131	0.0096	0.0311
COc1cccc(OCCCN)c1-c1cc(Nc2cnc(C#N)cn2)n[nH]1 [Prexasertib] + Cc1cc2ncnn2cc1Nc1ncc2c(n1)n(C1CCOCC1)c(=O)n2C [AZD7648] (first compound max 1 µM, 7x7, partner max 10 µM)	-0.0059	-0.0363	-0.0284	0.0186	-0.0379	-0.0227	0.0194	-0.072	0.0218	-0.0011	-0.0285	-0.0573	-0.0123	-0.0474	0.0204	-0.0255	-0.0164	-0.0199	0.0071	-0.0369
COc1cccc(OCCCN)c1-c1cc(Nc2cnc(C#N)cn2)n[nH]1 [Prexasertib] + O=C(c1cc(Cc2n[nH]c(=O)c3ccccc23)ccc1F)N1CCN(C(=O)C2CC2)CC1 [Olaparib] (first compound max 1 µM, 7x7, partner max 10 µM)	-0.0597	-0.0981	-0.124	-0.0262	-0.0261	-0.0422	0.0128	-0.0934	-0.0692	0.0459	-0.0635	-0.0474	-0.0407	-0.0217	-0.0051	-0.0141	0.0121	-0.0365	-0.0311	-0.0306
COc1cc2c(cc1OCCCCCOc1cc3c(cc1OC)C(=O)N1C=C(C)C[C@H]1C=N3)N=C[C@@H]1CC(C)=CN1C2=O [SG3199] + O=C(c1cc(Cc2n[nH]c(=O)c3ccccc23)ccc1F)N1CCN(C(=O)C2CC2)CC1 [Olaparib] (first compound max 0.001 µM, 7x7, partner max 10 µM)	-0.0175	-0.0326	-0.0222	-0.0194	-0.0456	-0.0181	-0.0353	-0.046	-0.0048	-0.0289	-0.0451	0.0064	-0.0453	-0.0424	-0.0314	-0.0645	-0.0523	-0.053	-0.0058	-0.0406
CCc1c2c(nc3ccc(O)cc13)-c1cc3c(c(=O)n1C2)COC(=O)[C@]3(O)CC [SN-38] + CN(C)CCCOc1ccc(-c2ccc3ncc4c(c3c2)n(C2CCOCC2)c(=O)n4C)cn1 [AZD0156] (first compound max 0.3 µM, 7x7, partner max 1 µM)	0.0527	-0.0413	-0.0353	0.0556	-0.0014	0.0533	-0.0159	-0.0182	0.027	0.0291	-0.0016	0.0443	-0.0134	-0.0142	0.0191	0.0647	0.0669	-0.0268	0.0312	-0.0255
CC(=O)Nc1cccc(-n2c(=O)n(C3CC3)c(=O)c3c(Nc4ccc(I)cc4F)n(C)c(=O)c(C)c32)c1 [Trametinib] + Cc1nc(-c2cn3c(n2)-c2ccc(-c4cnn(C(C)(C)C(N)=O)c4)cc2OCC3)n(C(C)C)n1 [Taselisib] (first compound max 1 µM, 7x7, partner max 10 µM)	0.122	0.0324	0.102	0.0731	0.0654	0.0411	0.152	0.138	0.14	0.106	0.0483	0.0645	0.0995	0.136	0.134	0.182	0.124	0.0042	0.0464	0.132
CC1(C)CCC(CN2CCN(c3ccc(C(=O)NS(=O)(=O)c4ccc(NCC5CCOCC5)c([N+](=O)[O-])c4)c(Oc4cnc5[nH]ccc5c4)c3)CC2)=C(c2ccc(Cl)cc2)C1 [Venetoclax] + C1CN(CCC1(C(=O)N[C@@H](CCO)C2=CC=C(C=C2)Cl)N)C3=NC=NC4=C3C=CN4 [Capivasertib] (first compound max 1 µM, 7x7, partner max 3 µM)	-0.0496	-0.0349	0.0086	-0.0278	-0.0342	0.0153	-0.0791	-0.0343	-0.0245	-0.0247	-0.072	-0.0461	-0.0321	-0.0306	-0.0284	0.0141	-0.0801	-0.046	0.0415	-0.0366
